Measurements published in patent US10799507B2, “5-(7H-pyrrolo[2,3-d]pyrimidin-4-yl)-5-azaspiro[2.5]octane-8-carboxylic acid derivatives as novel JAK kinase inhibitors” (LEO Pharma A/S, priority 2017, dated 2020).

What was measured:
Type in all cases: biochemical
JAK1 = JAK1 (Homo sapiens (Human), UniProt P23458); assay: JAK kinase assay (HTRF), JAK1; details: catalytic domain, ATP at Km (7 μM)
Experimental: (§1) Human baculovirus-expressed JAK1, 2, 3 and TYK2 were purchased from Carna Biosciences, Inc. All four purified enzymes contain only the catalytic domain. JAK1 (aa 850-1154) and TYK2 (aa 871-1187) are expressed with an N-terminally fused GST-tag, and JAK2 and JAK3 with an N-terminally fused His-tag.
(§2) Inhibition of phosphorylation of a synthetic peptide was measured in an HTRF-based assay using the TK substrate-Biotin from the Cisbio HTRFKinEASE TK kit. First, 2 μl of TK solution (TK substrate-biotin in kinase buffer [1× enzymatic buffer from HTRFKinEASE TK kit, 1 mM DTT]) is added to a plate containing 1 μl prediluted compound (final assay concentration DMSO: 0.75%). Then, 5 μl kinase-ATP mix (prepared in kinase buffer) is added to the wells and the plates are incubated at RT for 20-30 min. For all four kinases a concentration of ATP that corresponded to the Km for ATP was used. The final concentrations of buffers, substrate, kinase and ATP were: JAK1: 50 mM Hepes buffer pH 7.0, 0.01% BSA, 10 mM MgCl2, 1 mM DTT, 7 μM ATP, 50 nM SEB, 1 μM TK Substrate-Biotin and 5 ng JAK1; JAK2: 50 mM Hepes buffer pH 7.0, 0.01% BSA, 5 mM MgCl2, 1 mM DTT, 4 μM ATP, 1 μM TK Substrate-Biotin and 0.1 ng JAK2; JAK3: 50 mM Hepes buffer pH 7.0, 0.01% BSA, 5 mM MgCl2, 1 mM DTT, 2 μM ATP, 1 μM TK Substrate-Biotin and 0.3 ng JAK3; TYK2: 50 mM Hepes buffer pH 7.0, 0.01% BSA, 5 mM MgCl2, 1 mM DTT, 13 μM ATP, 50 nM SEB, 1 μM TK Substrate-Biotin and 0.8 ng TYK2. Thereafter, the kinase reaction is stopped by adding 4 μl detection mix (final concentrations: 50 mM Hepes buffer pH 7.0, 0.01% BSA, 0.8 M KF, 20 mM EDTA, 42 nM Streptavidin-XL665 and 1:400 STK Ab Cryptate) and the plates are incubated overnight in the dark. The HTRF signal is read using an Envision plate reader.

TYK2 = TYK2 (Homo sapiens (Human), UniProt P29597); assay: JAK kinase assay (HTRF), TYK2; details: catalytic domain, ATP at Km (13 μM)
Experimental: as §1, §2
(§3) In Table 1 selected JAK kinase inhibitory activities are listed along with analytical tR and observed M+H^+ data (UPLC-MS method 7).

JAK3 = JAK3 (Homo sapiens (Human), UniProt P52333); assay: JAK kinase assay (HTRF), JAK3; details: catalytic domain, ATP at Km (2 μM)
Experimental: as §1, §2, §3

JAK2 = JAK2 (Homo sapiens (Human), UniProt O60674); assay: JAK kinase assay (HTRF), JAK2; details: catalytic domain, ATP at Km (4 μM)
Experimental: as §1, §2

Sequence of JAK1 (P23458 850-1154): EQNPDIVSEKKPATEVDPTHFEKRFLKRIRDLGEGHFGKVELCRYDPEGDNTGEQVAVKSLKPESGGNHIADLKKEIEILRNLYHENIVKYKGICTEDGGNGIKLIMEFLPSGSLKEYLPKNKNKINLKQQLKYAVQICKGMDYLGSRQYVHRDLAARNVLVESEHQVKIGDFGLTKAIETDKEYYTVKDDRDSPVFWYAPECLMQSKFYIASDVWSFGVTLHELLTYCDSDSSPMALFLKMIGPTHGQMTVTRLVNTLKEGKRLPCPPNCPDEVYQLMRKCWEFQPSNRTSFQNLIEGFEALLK
Sequence of JAK2 (O60674 849-1124): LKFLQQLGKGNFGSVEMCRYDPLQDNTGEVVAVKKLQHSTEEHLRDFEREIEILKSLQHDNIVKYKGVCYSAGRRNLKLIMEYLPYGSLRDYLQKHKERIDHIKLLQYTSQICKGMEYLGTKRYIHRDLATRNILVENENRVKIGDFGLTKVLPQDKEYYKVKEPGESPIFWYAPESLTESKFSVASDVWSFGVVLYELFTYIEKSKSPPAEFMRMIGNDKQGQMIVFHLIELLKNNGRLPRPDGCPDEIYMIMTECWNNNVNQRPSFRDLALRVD
Sequence of JAK3 (P52333 822-1111): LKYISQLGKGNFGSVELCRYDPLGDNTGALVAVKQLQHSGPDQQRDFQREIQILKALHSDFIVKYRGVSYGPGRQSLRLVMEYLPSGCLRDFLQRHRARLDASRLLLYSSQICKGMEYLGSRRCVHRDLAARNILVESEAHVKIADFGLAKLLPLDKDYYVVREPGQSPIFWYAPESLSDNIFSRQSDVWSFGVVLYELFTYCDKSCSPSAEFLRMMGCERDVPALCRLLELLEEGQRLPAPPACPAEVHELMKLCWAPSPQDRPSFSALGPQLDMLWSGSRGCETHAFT
Sequence of TYK2 (P29597 871-1187): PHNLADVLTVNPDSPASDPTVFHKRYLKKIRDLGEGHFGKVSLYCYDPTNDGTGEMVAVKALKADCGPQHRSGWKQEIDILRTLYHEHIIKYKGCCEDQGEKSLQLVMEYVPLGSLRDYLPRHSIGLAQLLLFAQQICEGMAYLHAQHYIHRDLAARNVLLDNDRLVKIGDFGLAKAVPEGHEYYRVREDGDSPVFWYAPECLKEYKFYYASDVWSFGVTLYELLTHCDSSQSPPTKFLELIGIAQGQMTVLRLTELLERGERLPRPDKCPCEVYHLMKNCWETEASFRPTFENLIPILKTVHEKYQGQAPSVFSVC

Compound	EC50 (JAK1) [nM]	EC50 (TYK2) [nM]	EC50 (JAK3) [nM]	EC50 (JAK2) [nM]
COc1cc(C#N)ccc1CNC(=O)[C@H]1CCN(c2ncnc3[nH]ccc23)CC12CC2 [Example 71, (8S)-N-[(4-cyano-2-methoxy-phenyl)methyl]-5-(7H-pyrrolo[2,3-d]pyrimidin-4-yl)-5-azaspiro[2.5]octane-8-carboxamide]	5.8	121	63.1	14.2
Cc1ccc([C@H](O)[C@H](C)NC(=O)[C@H]2CCN(c3ncnc4[nH]ccc34)CC23CC3)cc1 [Example 73, (8S)-N-[(1S,2S)-2-hydroxy-1-methyl-2-(p-tolyl)ethyl]-5-(7H-pyrrolo[2,3-d]pyrimidin-4-yl)-5-azaspiro[2.5]octane-8-carboxamide]	6.1	171	30.9	8.3
Cc1cc([C@H](O)[C@H](C)NC(=O)[C@H]2CCN(c3ncnc4[nH]ccc34)CC23CC3)ncc1F [Example 75, (8S)-N-[(1S,2R)-2-(5-fluoro-4-methyl-2-pyridyl)-2-hydroxy-1-methyl-ethyl]-5-(7H-pyrrolo[2,3-d]pyrimidin-4-yl)-5-azaspiro[2.5]octane-8-carboxamide]	6.1	50.2	102	16.3
Cc1cc(F)ccc1[C@H](CO)NC(=O)[C@H]1CCN(c2ncnc3[nH]ccc23)CC12CC2 [Example 77, (8S)-N-[(1R)-1-(4-fluoro-2-methyl-phenyl)-2-hydroxy-ethyl]-5-(7H-pyrrolo[2,3-d]pyrimidin-4-yl)-5-azaspiro[2.5]octane-8-carboxamide]	6.2	115	31.3	16.3
C[C@](CO)(NC(=O)[C@H]1CCN(c2ncnc3[nH]ccc23)CC12CC2)c1ccc(C#N)cn1 [Example 78, (8S)-N-[(1S)-1-(5-cyano-2-pyridyl)-2-hydroxy-1-methyl-ethyl]-5-(7H-pyrrolo[2,3-d]pyrimidin-4-yl)-5-azaspiro[2.5]octane-8-carboxamide]	6.3	231	39.4	17
O=C(N[C@H](CO)C(=O)OCc1ccccc1)[C@H]1CCN(c2ncnc3[nH]ccc23)CC12CC2 [Example 80, benzyl (2R)-3-hydroxy-2-[[(8S)-5-(7H-pyrrolo[2,3-d]pyrimidin-4-yl)-5-azaspiro[2.5]octane-8-carbonyl]amino]propanoate]	6.7	119	24.3	21.8
O=C(NCc1cccc(F)c1)C1CCN(c2ncnc3[nH]ccc23)CC12CC2 (stereo not drawn) [Example 81, N-[(3-fluorophenyl)methyl]-5-(7H-pyrrolo[2,3-d]pyrimidin-4-yl)-5-azaspiro[2.5]octane-8-carboxamide]	6.7	117	37.7	14.1
N#C[C@H]1CC[C@H](CNC(=O)C2CCN(c3ncnc4[nH]ccc34)CC23CC3)C1 (stereo partly drawn) [Example 83, N-[[(1S,3S)-3-cyanocyclopentyl]methyl]-5-(7H-pyrrolo[2,3-d]pyrimidin-4-yl)-5-azaspiro[2.5]octane-8-carboxamide]	6.8	390	44.3	22.6
C[C@@H](NC(=O)[C@H]1CCN(c2ncnc3[nH]ccc23)CC12CC2)c1ccc(C#N)c(F)c1 [Example 84, (8S)-N-[(1R)-1-(4-cyano-3-fluoro-phenyl)ethyl]-5-(7H-pyrrolo[2,3-d]pyrimidin-4-yl)-5-azaspiro[2.5]octane-8-carboxamide]	7	249	55.5	24.1
O=C(NCc1ccncc1)C1CCN(c2ncnc3[nH]ccc23)CC12CC2 (stereo not drawn) [Example 85, N-(4-pyridylmethyl)-5-(7H-pyrrolo[2,3-d]pyrimidin-4-yl)-5-azaspiro[2.5]octane-8-carboxamide]	7.1	798	42.8	28.7
O=C(N[C@H](CO)C(=O)OCC1CCCC1)[C@H]1CCN(c2ncnc3[nH]ccc23)CC12CC2 [Example 87, cyclopentylmethyl (2R)-3-hydroxy-2-[[(8S)-5-(7H-pyrrolo[2,3-d]pyrimidin-4-yl)-5-azaspiro[2.5]octane-8-carbonyl]amino]propanoate]	7.2	124	43	25.5
O=C(NCC1(O)CCCC1)C1CCN(c2ncnc3[nH]ccc23)CC12CC2 (stereo not drawn) [Example 88, N-[(1-hydroxycyclopentyl)methyl]-5-(7H-pyrrolo[2,3-d]pyrimidin-4-yl)-5-azaspiro[2.5]octane-8-carboxamide]	7.2	407	58.6	23.7
CCc1cc(C#N)ccc1[C@H](CO)NC(=O)[C@H]1CCN(c2ncnc3[nH]ccc23)CC12CC2 [Example 89, (8S)-N-[(1R)-1-(4-cyano-2-ethyl-phenyl)-2-hydroxy-ethyl]-5-(7H-pyrrolo[2,3-d]pyrimidin-4-yl)-5-azaspiro[2.5]octane-8-carboxamide]	7.5	284	53.7	31
COc1ccc(CNC(=O)C2CCN(c3ncnc4[nH]ccc34)CC23CC3)cc1 (stereo not drawn) [Example 90, N-[(4-methoxyphenyl)methyl]-5-(7H-pyrrolo[2,3-d]pyrimidin-4-yl)-5-azaspiro[2.5]octane-8-carboxamide]	8.2	288	34.5	19.6
COc1cc(CNC(=O)[C@H]2CCN(c3ncnc4[nH]ccc34)CC23CC3)ccc1C#N [Example 93, (8S)-N-[(4-cyano-3-methoxy-phenyl)methyl]-5-(7H-pyrrolo[2,3-d]pyrimidin-4-yl)-5-azaspiro[2.5]octane-8-carboxamide]	8.5	118	74.1	29.3
O=C(N[C@H](CO)C(=O)OC1CCCC1)[C@H]1CCN(c2ncnc3[nH]ccc23)CC12CC2 [Example 96, cyclopentyl (2R)-3-hydroxy-2-[[(8S)-5-(7H-pyrrolo[2,3-d]pyrimidin-4-yl)-5-azaspiro[2.5]octane-8-carbonyl]amino]propanoate]	8.7	250	59.2	28.7
COc1cc(C#N)ccc1[C@H](C)NC(=O)[C@H]1CCN(c2ncnc3[nH]ccc23)CC12CC2 [Example 97, (8S)-N-[(1S)-1-(4-cyano-2-methoxy-phenyl)ethyl]-5-(7H-pyrrolo[2,3-d]pyrimidin-4-yl)-5-azaspiro[2.5]octane-8-carboxamide]	8.7	315	226	36
O=C(N[C@H](CO)C(=O)OCC1(CO)CCC1)[C@H]1CCN(c2ncnc3[nH]ccc23)CC12CC2 [Example 98, [1-(hydroxymethyl)cyclobutyl]methyl (2R)-3-hydroxy-2-[[(8S)-5-(7H-pyrrolo[2,3-d]pyrimidin-4-yl)-5-azaspiro[2.5]octane-8-carbonyl]amino]propanoate]	8.8	177	44.3	15
C[C@H](NC(=O)C1CCN(c2ncnc3[nH]ccc23)CC12CC2)c1ccccc1 (stereo partly drawn) [Example 99, N-[(1S)-1-phenylethyl]-5-(7H-pyrrolo[2,3-d]pyrimidin-4-yl)-5-azaspiro[2.5]octane-8-carboxamide]	9.1	399	31.1	11.2
O=C(N[C@@H](CO)c1ccc(F)cc1CO)[C@H]1CCN(c2ncnc3[nH]ccc23)CC12CC2 [Example 100, (8S)-N-[(1R)-1-[4-fluoro-2-(hydroxymethyl)phenyl]-2-hydroxy-ethyl]-5-(7H-pyrrolo[2,3-d]pyrimidin-4-yl)-5-azaspiro[2.5]octane-8-carboxamide]	9.1	248	71.9	37.3
C[C@@H](NC(=O)[C@H]1CCN(c2ncnc3[nH]ccc23)CC12CC2)c1ccc(C#N)cc1F [Example 101, (8S)-N-[(1R)-1-(4-cyano-2-fluoro-phenyl)ethyl]-5-(7H-pyrrolo[2,3-d]pyrimidin-4-yl)-5-azaspiro[2.5]octane-8-carboxamide]	9.3	516	157	72.8
